This note sets out measurements from ChEMBL document CHEMBL1157897, “A rapid oxime linker-based library approach to identification of bivalent inhibitors of the Yersinia pestis protein-tyrosine phosphatase, YopH” (Bioorg Med Chem Lett, 2010).

The test concerns the target Secreted effector protein (Yersinia pestis, UniProt O68720). In words: Inhibition of Yersinia pestis YopH after 15 mins by pNPP hydrolysis assay.

Chain of Secreted effector protein (O68720 whole entry): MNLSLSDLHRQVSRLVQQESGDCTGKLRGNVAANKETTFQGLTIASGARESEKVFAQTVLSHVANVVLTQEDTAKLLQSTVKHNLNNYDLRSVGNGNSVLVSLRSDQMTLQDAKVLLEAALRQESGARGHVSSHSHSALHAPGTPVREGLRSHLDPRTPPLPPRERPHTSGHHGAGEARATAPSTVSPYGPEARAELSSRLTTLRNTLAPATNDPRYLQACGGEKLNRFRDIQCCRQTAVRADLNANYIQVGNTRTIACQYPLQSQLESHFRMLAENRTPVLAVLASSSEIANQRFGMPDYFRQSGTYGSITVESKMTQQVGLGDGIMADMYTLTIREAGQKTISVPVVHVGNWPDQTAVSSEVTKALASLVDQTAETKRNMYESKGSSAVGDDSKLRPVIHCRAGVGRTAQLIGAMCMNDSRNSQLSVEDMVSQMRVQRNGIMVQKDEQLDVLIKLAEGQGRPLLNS

In general, IC50 refers to the point on the concentration scale where inhibition reaches its midpoint. Lower therefore signals greater potency. `O=C(O)c1cc(/C=N/OCCCCCCCCCCO/N=C/c2ccc(OCc3ccccc3)cc2)ccc1O` yielded an IC50 of 2.4 µM.
